Data as given in paper PMC7125606 (Antiviral Research, 2009).
Where two headings read alike, the source gives them in different places.

Columns and labels:
[1] = system: MDCK cells; settings: minimal changes in cell morphology by microscopy
[2] = in vitro; settings: dog
[3] = system: Influenza A/H3N2 (strain A/HK/7/87); assay: microbe, parasite or virus in culture; assay type: cell-based; settings: H3N2, MDCK, in Homo sapiens, 72 h
[4] = system: Influenza A/H3N2 (strain X-31); assay: microbe, parasite or virus in culture; assay type: cell-based; settings: H3N2, MDCK, in Homo sapiens, 72 h
[5] = system: African green monkey kidney (Vero) cells
[6] = system: influenza virus; assay type: cell-based, human influenza virus; settings: Ratio of MCC to average EC50, MDCK cells
[7] = system: human cervix epithelial (HeLa) cells
[8] = system: Human embryonic lung (HEL) fibroblasts
[9] = read-out: Antiviral EC50, Influenza A/H3N2 (strain A/HK/7/87), CPE
[10] = read-out: Antiviral EC50, Influenza A/H3N2 (strain A/HK/7/87), MTS
[11] = read-out: Antiviral EC50, Influenza A/H3N2 (strain X-31), CPE
[12] = read-out: Antiviral EC50, Influenza A/H3N2 (strain X-31), MTS

| Compound | Cytotoxicity MCC (minimum cytotoxic concentration) [1] [µM] | CC50 [2] [µM] | EC50 [3, 9] [µM] | EC50 [3, 10] [µM] | EC50 [4, 11] [µM] | EC50 [4, 12] [µM] | Cytotoxic concentration MCC, Vero [5] [µM] | Selectivity index [6] | Cytotoxic concentration MCC, HeLa [7] [µM] | Cytotoxic concentration MCC, HEL [8] [µM] |
| --- | --- | --- | --- | --- | --- | --- | --- | --- | --- | --- |
| NC12CC3CC(CC(C3)C1)C2 [Amantadine] | >100 | > 100 | 3.9 ± 4.1 | 3.2 ± 4 | 54 ± 33 | 45 ± 21 |  |  |  |  |
| COC(=O)[C@H]1NC(=O)[C@H]2NC(=O)[C@H](NC(=O)[C@@H]3NC(=O)[C@H]4NC(=O)[C@H](NC(=O)[C@H](N)c5ccc(O)c(c5)Oc5cc4cc(O)c5C)[C@H](O)c4ccc(cc4)Oc4cc3cc(c4O)Oc3ccc(cc3)[C@H]2O)c2ccc(O)c(c2)-c2c(O)cc(O)cc21 [Compound 2, aglycoristocetin] | 100 | 44 ± 10 | 4.3 ± 2.9 | 3.2 ± 1.6 | 8.4 ± 2.4 | 10.7 ± 2.5 | 100 | 15 | ≥100 | ≥100 |
| CCC(CC)O[C@@H]1C=C(C(=O)O)C[C@H](N)[C@H]1NC(C)=O [Oseltamivir carboxylate] | >100 | > 100 | 0.26 ± 0.3 | 0.23 ± 0.23 | 0.027 ± 0.013 | 0.064 ± 0.078 |  |  |  |  |
| NC(=O)c1ncn([C@@H]2O[C@H](CO)[C@@H](O)[C@H]2O)n1 [Ribavirin] | ≥100 |  | 8 ± 2.2 | 7.6 ± 3 | 9 ± 0.04 | 9.6 ± 2.2 |  |  |  |  |
